# Reference: ChEMBL document CHEMBL2439971, “Design, synthesis and antiproliferative evaluation of fluorenone analogs with DNA topoisomerase I inhibitory properties” (Bioorg Med Chem, 2013)
# The source made the active and inactive calls. No cut-off for these calls is given here.
# What was measured:
# [1] = tested on: SK-MEL-2; test: Cytotoxicity against human SK-MEL-2 cells at 10 uM after 48 hrs by sulforhodamine B assay relative to control; format: functional
# [2] = tested on: Malme-3M; test: Cytotoxicity against human MALME-3M cells at 10 uM after 48 hrs by sulforhodamine B assay relative to control; format: functional
# [3] = tested on: SNB-75; test: Cytotoxicity against human SNB75 cells at 10 uM after 48 hrs by sulforhodamine B assay relative to control; format: functional
# [4] = tested on: K562; test: Cytotoxicity against human K562 cells at 10 uM after 48 hrs by sulforhodamine B assay relative to control; format: functional
# [5] = tested on: HL-60(TB); test: Cytotoxicity against human HL-60(TB) cells at 10 uM after 48 hrs by sulforhodamine B assay relative to control; format: functional
# [6] = tested on: RXF 393; test: Cytotoxicity against human RXF393 cells at 10 uM after 48 hrs by sulforhodamine B assay relative to control; format: functional
# [7] = tested on: UACC-257; test: Cytotoxicity against human UACC257 cells at 10 uM after 48 hrs by sulforhodamine B assay relative to control; format: functional
# [8] = tested on: BT-549; test: Cytotoxicity against human BT549 cells at 10 uM after 48 hrs by sulforhodamine B assay relative to control; format: functional
# [9] = tested on: CAKI-1; test: Cytotoxicity against human CAKI-1 cells at 10 uM after 48 hrs by sulforhodamine B assay relative to control; format: functional
# [10] = tested on: SW-620; test: Cytotoxicity against human SW620 cells at 10 uM after 48 hrs by sulforhodamine B assay relative to control; format: functional
# [11] = tested on: HOP-62; test: Cytotoxicity against human HOP62 cells at 10 uM after 48 hrs by sulforhodamine B assay relative to control; format: functional
# [12] = tested on: SN12C; test: Cytotoxicity against human SN12C cells at 10 uM after 48 hrs by sulforhodamine B assay relative to control; format: functional
# [13] = tested on: SF-539; test: Cytotoxicity against human SF539 cells at 10 uM after 48 hrs by sulforhodamine B assay relative to control; format: functional
# [14] = tested on: OVCAR-4; test: Cytotoxicity against human OVCAR4 cells at 10 uM after 48 hrs by sulforhodamine B assay relative to control; format: functional
# [15] = tested on: IGROV-1; test: Cytotoxicity against human IGROV1 cells at 10 uM after 48 hrs by sulforhodamine B assay relative to control; format: functional
# [16] = tested on: CCRF-CEM; test: Cytotoxicity against human CCRF-CEM cells at 10 uM after 48 hrs by sulforhodamine B assay relative to control; format: functional
# [17] = tested on: NCI-H23; test: Cytotoxicity against human NCI-H23 cells at 10 uM after 48 hrs by sulforhodamine B assay relative to control; format: functional
# [18] = tested on: SNB-19; test: Cytotoxicity against human SNB19 cells at 10 uM after 48 hrs by sulforhodamine B assay relative to control; format: functional
# [19] = tested on: OVCAR-5; test: Cytotoxicity against human OVCAR5 cells at 10 uM after 48 hrs by sulforhodamine B assay relative to control; format: functional
# [20] = tested on: UO-31; test: Cytotoxicity against human UO31 cells at 10 uM after 48 hrs by sulforhodamine B assay relative to control; format: functional
# [21] = tested on: HCC 2998; test: Cytotoxicity against human HCC2998 cells at 10 uM after 48 hrs by sulforhodamine B assay relative to control; format: functional
# [22] = tested on: U-251; test: Cytotoxicity against human U251 cells at 10 uM after 48 hrs by sulforhodamine B assay relative to control; format: functional
# [23] = tested on: SF-268; test: Cytotoxicity against human SF268 cells at 10 uM after 48 hrs by sulforhodamine B assay relative to control; format: functional
# [24] = tested on: HCT-15; test: Cytotoxicity against human HCT15 cells at 10 uM after 48 hrs by sulforhodamine B assay relative to control; format: functional
# [25] = tested on: MCF7; test: Cytotoxicity against human MCF7 cells at 10 uM after 48 hrs by sulforhodamine B assay relative to control; format: functional
# [26] = tested on: SK-MEL-28; test: Cytotoxicity against human SK-MEL-28 cells at 10 uM after 48 hrs by sulforhodamine B assay relative to control; format: functional
# [27] = Cytotoxicity against human EKVX cells at 10 uM after 48 hrs by sulforhodamine B assay relative to control; format: functional
# [28] = tested on: 786-0; test: Cytotoxicity against human 786-0 cells at 10 uM after 48 hrs by sulforhodamine B assay relative to control; format: functional
# [29] = tested on: NCI-H460; test: Cytotoxicity against human NCI-H460 cells at 10 uM after 48 hrs by sulforhodamine B assay relative to control; format: functional
# [30] = tested on: HT-29; test: Cytotoxicity against human HT-29 cells at 10 uM after 48 hrs by sulforhodamine B assay relative to control; format: functional
# [31] = tested on: PC-3; test: Cytotoxicity against human PC3 cells at 10 uM after 48 hrs by sulforhodamine B assay relative to control; format: functional
# [32] = tested on: KM12; test: Cytotoxicity against human KM12 cells at 10 uM after 48 hrs by sulforhodamine B assay relative to control; format: functional
# [33] = tested on: M14; test: Cytotoxicity against human M14 cells at 10 uM after 48 hrs by sulforhodamine B assay relative to control; format: functional
# [34] = tested on: MOLT-4; test: Cytotoxicity against human MOLT4 cells at 10 uM after 48 hrs by sulforhodamine B assay relative to control; format: functional
# [35] = tested on: COLO 205; test: Cytotoxicity against human COLO205 cells at 10 uM after 48 hrs by sulforhodamine B assay relative to control; format: functional
# [36] = tested on: NCI/ADR-RES; test: Cytotoxicity against human NCI/ADR-RES cells at 10 uM after 48 hrs by sulforhodamine B assay relative to control; format: functional
# [37] = tested on: PC-3; test: Cytotoxicity against human PC3 cells after 48 hrs by sulforhodamine B assay; format: functional, cell-based; conditions: PC-3, 48 h
# [38] = tested on: RPMI-8226; test: Cytotoxicity against human RPMI8226 cells at 10 uM after 48 hrs by sulforhodamine B assay relative to control; format: functional
# [39] = tested on: T47D; test: Cytotoxicity against human T47D cells at 10 uM after 48 hrs by sulforhodamine B assay relative to control; format: functional
# [40] = tested on: HCT-116; test: Cytotoxicity against human HCT116 cells at 10 uM after 48 hrs by sulforhodamine B assay relative to control; format: functional
# [41] = tested on: MDA-MB-435; test: Cytotoxicity against human MDA-MB-435 cells at 10 uM after 48 hrs by sulforhodamine B assay relative to control; format: functional
# [42] = tested on: NCI-H322M; test: Cytotoxicity against human NCI-H322M cells at 10 uM after 48 hrs by sulforhodamine B assay relative to control; format: functional
# [43] = tested on: OVCAR-3; test: Cytotoxicity against human OVCAR3 cells at 10 uM after 48 hrs by sulforhodamine B assay relative to control; format: functional
# [44] = tested on: SR; test: Cytotoxicity against human SR cells at 10 uM after 48 hrs by sulforhodamine B assay relative to control; format: functional
# [45] = tested on: MDA-MB-231; test: Cytotoxicity against human MDA-MB-231 cells at 10 uM after 48 hrs by sulforhodamine B assay relative to control; format: functional
# [46] = tested on: UACC-62; test: Cytotoxicity against human UACC62 cells at 10 uM after 48 hrs by sulforhodamine B assay relative to control; format: functional
# [47] = Cytotoxicity against human Hs 578T cells at 10 uM after 48 hrs by sulforhodamine B assay relative to control; format: functional
# [48] = tested on: SF-295; test: Cytotoxicity against human SF295 cells at 10 uM after 48 hrs by sulforhodamine B assay relative to control; format: functional
# [49] = tested on: ACHN; test: Cytotoxicity against human ACHN cells at 10 uM after 48 hrs by sulforhodamine B assay relative to control; format: functional
# [50] = tested on: TK-10; test: Cytotoxicity against human TK10 cells at 10 uM after 48 hrs by sulforhodamine B assay relative to control; format: functional
# [51] = tested on: DU-145; test: Cytotoxicity against human DU145 cells at 10 uM after 48 hrs by sulforhodamine B assay relative to control; format: functional
# [52] = tested on: NCI-H522; test: Cytotoxicity against human NCI-H522 cells at 10 uM after 48 hrs by sulforhodamine B assay relative to control; format: functional
# [53] = species on record: Homo sapiens; test: Inhibition of telomerase (unknown origin) at 10 uM TRAP assay
# [54] = tested on: A549; test: Cytotoxicity against human A549 cells at 10 uM after 48 hrs by sulforhodamine B assay relative to control; format: functional
# [55] = tested on: OVCAR-8; test: Cytotoxicity against human OVCAR8 cells at 10 uM after 48 hrs by sulforhodamine B assay relative to control; format: functional
# [56] = tested on: SK-MEL-5; test: Cytotoxicity against human SK-MEL-5 cells at 10 uM after 48 hrs by sulforhodamine B assay relative to control; format: functional
# [57] = tested on: NCI-H226; test: Cytotoxicity against human NCI-H226 cells at 10 uM after 48 hrs by sulforhodamine B assay relative to control; format: functional
# [58] = tested on: MDA-MB-468; test: Cytotoxicity against human MDA-MB-468 cells at 10 uM after 48 hrs by sulforhodamine B assay relative to control; format: functional
# [59] = tested on: LOX IMVI; test: Cytotoxicity against human LOXIMVI cells at 10 uM after 48 hrs by sulforhodamine B assay relative to control; format: functional
smiles,measurement,setting,value
CCCNCC(=O)Nc1ccc2c(c1)C(=O)c1cc(NC(=O)CNCCC)ccc1-2,Activity,[1],114.94%
same,Activity,[2],111.89%
same,Activity,[3],90.2%
same,Activity,[4],1.15%
same,Activity,[5],78.59%
same,Activity,[6],64.2%
same,Activity,[7],113.51%
same,Activity,[8],97.53%
same,Activity,[9],84.88%
same,Activity,[10],33.33%
same,Activity,[11],70.78%
same,Activity,[12],79.58%
same,Activity,[13],86.19%
same,Activity,[14],65.9%
same,Activity,[15],67.45%
same,Activity,[16],43.54%
same,Activity,[17],81.96%
same,Activity,[18],96.69%
same,Activity,[19],115.75%
same,Activity,[20],59.44%
same,Activity,[21],75.34%
same,Activity,[22],49.16%
same,Activity,[23],81.33%
same,Activity,[24],82.71%
same,Activity,[25],42.23%
same,Activity,[26],91.46%
same,Activity,[27],88.56%
same,Activity,[28],82.05%
same,Activity,[29],47.28%
same,Activity,[30],7.11%
same,Activity,[31],63.47%
same,Activity,[32],65.12%
same,Activity,[33],84.8%
same,Activity,[34],41.29%
same,Activity,[35],53.11%
same,Activity,[36],90.61%
same,IC50,[37],5.46 µM
same,Activity,[38],62.56%
same,Activity,[39],100.55%
same,Activity,[40],34.22%
same,Activity,[41],74.91%
same,Activity,[42],55.32%
same,Activity,[43],101.73%
same,Activity,[44],26.93%
same,Activity,[45],53.48%
same,Activity,[46],108.2%
same,Activity,[47],109.04%
same,Activity,[48],78.31%
same,Activity,[49],72.93%
same,Activity,[50],101.22%
same,Activity,[51],68.94%
same,Activity,[52],63.92%
same,inhibition,[53],inactive
same,Activity,[54],44.21%
same,Activity,[55],54.46%
same,Activity,[56],93.78%
same,Activity,[57],104.17%
same,Activity,[58],60.47%
same,Activity,[59],63.5%
CN1CCN(CCC(=O)Nc2ccc3c(c2)C(=O)c2cc(NC(=O)CCN4CCN(C)CC4)ccc2-3)CC1,Activity,[1],109.38%
same,Activity,[2],98.05%
same,Activity,[3],77.89%
same,Activity,[4],99.19%
same,Activity,[5],103.58%
same,Activity,[6],97.03%
same,Activity,[7],103.02%
same,Activity,[8],107.82%
same,Activity,[10],105.36%
same,Activity,[11],109.22%
same,Activity,[12],102.94%
same,Activity,[13],111.08%
same,Activity,[14],99.91%
same,Activity,[15],102.45%
same,Activity,[16],97.76%
same,Activity,[17],96.83%
same,Activity,[18],105.99%
same,Activity,[19],104.62%
same,Activity,[20],89.26%
same,Activity,[21],99.57%
same,Activity,[22],100.29%
same,Activity,[23],109.98%
same,Activity,[24],101.35%
same,Activity,[25],95.72%
same,Activity,[26],96.67%
same,Activity,[27],111.18%
same,Activity,[28],100.57%
same,Activity,[29],107.13%
same,Activity,[30],101.23%
same,Activity,[31],104.35%
same,Activity,[32],111.12%
same,Activity,[33],105.74%
same,Activity,[34],94.59%
same,Activity,[35],108.32%
same,Activity,[36],103.89%
same,IC50,[37],> 30 µM
same,Activity,[38],106.48%
same,Activity,[39],102.07%
same,Activity,[40],100.16%
same,Activity,[43],116.35%
same,Activity,[44],92.06%
same,Activity,[45],115.67%
same,Activity,[46],104.21%
same,Activity,[47],102.5%
same,Activity,[49],100.97%
same,Activity,[50],99.67%
same,Activity,[51],112.6%
same,Activity,[52],86.63%
same,inhibition,[53],inactive
same,Activity,[54],106.9%
same,Activity,[55],101.48%
same,Activity,[56],107.35%
same,Activity,[57],98.16%
same,Activity,[58],88.91%
same,Activity,[59],96.43%
